Experiments:
[1] = treatment of MAS; cited from earlier work
MAS patients = conditions: cited from earlier work
IFN-induced signature = conditions: clinical trial of anakinra in SJIA, Quartier et al; vs placebo, regardless of response status; cited from earlier work
SJIA patients = conditions: observed MAS rates in phase III trials, even if underlying SJIA well controlled; cited from earlier work
[2] = tested on: perforin-deficient mice infected with murine CMV; conditions: cited from earlier work
[3] = tested on: SJIA patient with recurrent MAS; assay: Use of Tadekinig-alfa in an SJIA patient with recurrent MAS; format: in vivo, human; conditions: one SJIA patient with recurrent MAS

Molecule: COc1cc([C@@H]2c3cc4c(cc3[C@@H](O[C@@H]3O[C@@H]5CO[C@@H](C)O[C@H]5[C@H](O)[C@H]3O)[C@H]3COC(=O)[C@H]23)OCO4)cc(OC)c1O [etoposide]
- associated toxicity / side effects [1]: Life threatening bone marrow suppression, short-term, and hematologic malignancies later in life

Molecule: anakinra
- treatment of MAS (MAS patients; literature reports): successful treatment of MAS
- strength of the IFN-induced signature (IFN-induced signature): sustained increase

Molecule: canakinumab
- protection against MAS (SJIA patients): do not provide protection against MAS

Molecule: rilonacept
- occurrence of MAS in treated patients (MAS patients; literature report): MAS has been seen

Molecule: tocilizumab
- protection against MAS (SJIA patients): do not provide protection against MAS

B1: synthetic IL-18BP: synthetic IL-18 binding protein administered to mice (protein, UniProt Q9Z0M9 29-193, looked up)
Interleukin-18-binding protein: TSAPQTTATVLTGSSKDPCSSWSPAVPTKQYPALDVIWPEKEVPLNGTLTLSCTACSRFPYFSILYWLGNGSFIEHLPGRLKEGHTSREHRNTSTWLHRALVLEELSPTLRSTNFSCLFVDPGQVAQYHIILAQLWDGLKTAPSPSQETLSSHSPVSRSAGPGVA
- liver damage [2]: ameliorated liver damage
- overall survival [2]: no change
- production of proinflammatory cytokines [2]: remained high

B2: Tadekinig-alfa (protein, UniProt O95998 31-194, looked up)
Interleukin-18-binding protein: TPVSQTTTAATASVRSTKDPCPSQPPVFPAAKQCPALEVTWPEVEVPLNGTLSLSCVACSRFPNFSILYWLGNGSFIEHLPGRLWEGSTSRERGSTGTQLCKALVLEQLTPALHSTNFSCVLVDPEQVVQRHVVLAQLWAGLRATLPPTQEALPSSHSSPQQQG
notes: recombinant IL18BP
- frequency of MAS episodes [3]: remained unchanged
- severity of MAS episodes [3]: reduced the severity of MAS episodes
